Data as given in ChEMBL document CHEMBL1212843, “Dual-target-directed 1,3-diphenylurea derivatives: BACE 1 inhibitor and metal chelator against Alzheimer's disease” (Bioorg Med Chem, 2010).

How the values were obtained:
Beta-secretase 1 [1] = target: T1, Beta-secretase 1 (Homo sapiens, UniProt P56817); assay: Inhibition of BACE1 by FRET assay; parameters: concentration or dose not given beside the values; conditions: concentration not given here
Beta-secretase 1 [2] = target: T1, Beta-secretase 1; assay: Inhibition of BACE1 at 20 ug/ml by FRET assay

T1 sequence (P56817 whole entry): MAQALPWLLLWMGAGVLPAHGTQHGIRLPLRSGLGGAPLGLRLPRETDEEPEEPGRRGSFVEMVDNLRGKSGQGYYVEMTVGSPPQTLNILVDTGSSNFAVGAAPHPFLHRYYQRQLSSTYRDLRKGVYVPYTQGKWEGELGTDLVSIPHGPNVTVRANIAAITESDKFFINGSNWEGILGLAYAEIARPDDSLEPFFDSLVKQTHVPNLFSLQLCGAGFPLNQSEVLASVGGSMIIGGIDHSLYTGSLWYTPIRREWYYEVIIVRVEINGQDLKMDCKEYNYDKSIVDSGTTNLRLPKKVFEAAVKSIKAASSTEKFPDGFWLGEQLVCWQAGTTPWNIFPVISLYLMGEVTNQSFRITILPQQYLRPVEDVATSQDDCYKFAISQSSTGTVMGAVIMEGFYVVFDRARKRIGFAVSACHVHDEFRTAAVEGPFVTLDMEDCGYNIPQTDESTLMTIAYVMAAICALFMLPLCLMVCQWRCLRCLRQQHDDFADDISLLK

inhibition (Beta-secretase 1 [1]) [%]	IC50 (Beta-secretase 1 [2]) [µM]	SMILES
61.9	> 44.2	O=C(Cc1ccccc1Cl)Nc1cc(Br)ccc1OCCN1CCCCC1
77.9	> 45.2	NCCCNCCOc1ccc(Br)cc1NC(=O)Cc1ccccc1Cl
79.4	29.4	CCCCCCNCCOc1ccc(Br)cc1NC(=O)Cc1ccccc1Cl
	27.9	NCCCCCCNCCOc1ccc(Br)cc1NC(=O)Cc1ccccc1Cl
77.1	37.6	O=C(Cc1ccccc1Cl)Nc1cc(Br)ccc1OCCNC1CC1
20.3		O=C(Cc1cccc([N+](=O)[O-])c1)Nc1cc(Br)ccc1OCCN1CCOCC1
20.9		COc1cccc(CC(=O)Nc2cc(Br)ccc2OCCN2CCOCC2)c1
87.7	> 42.8	O=C(Cc1ccccc1Cl)Nc1cc(Br)ccc1OCCNC1CCCCC1
36.8		O=C(Cc1ccccc1Cl)Nc1cc(Br)ccc1OCCN1CCOCC1
67.5	> 42.5	O=C(Cc1ccccc1Cl)Nc1cc(Br)ccc1OCCNCCCCCO
24.5		O=C(Cc1ccccc1)Nc1cc(Br)ccc1OCCN1CCOCC1
